Measurements reported in patent US11980630B2 (priority 2017, dated 2024).
“Also recorded” adds a separate entry of the source. Where two headings read alike, the source gives them in different places.

Assays:
SUDV (Gulu) = experiment: microbe, parasite or virus in culture; assay type: cell-based, Sudan virus; details: for EC50: Sudan ebolavirus, HeLa
Rift Valley Fever = experiment: microbe, parasite or virus in culture; assay type: cell-based; details: Huh-7, read-out: Rift Valley Fever EC50
Lassa Virus = experiment: microbe, parasite or virus in culture; assay type: cell-based; details: Mammarenavirus lassaense, Huh-7, read-out: Lassa Virus EC50
[1] = test system: recombinant reporter EBOV; experiment: microbe, parasite or virus in culture; assay type: cell-based, Ebola virus; details: for EC50: Zaire ebolavirus
Huh7 cells = details: human
MARV (Ci67) = experiment: organism not typed; assay type: cell-based, Marburg virus; details: for EC50: HeLa
HeLa cells = details: human
EBOV (Makona) = experiment: microbe, parasite or virus in culture; assay type: cell-based, Ebola virus; details: for EC50: Zaire ebolavirus, HeLa
RSV MTase = target: T1, RSV MTase (Human respiratory syncytial virus A, UniProt P28887); experiment: biochemical; assay type: biochemical
T1 construct: RSV MTase: 4 μM

[2] = target: SARS-CoV nsp14 (N7 MTase) (Severe acute respiratory syndrome coronavirus, UniProt P0C6X7); assay type: biochemical
[3] = target: SARS polymerase complex (12HC/7HC8) (Severe acute respiratory syndrome coronavirus, UniProt P0C6X7); assay type: biochemical
[4] = target: MERS polymerase complex (12HC/7HC8) (Middle East respiratory syndrome-related coronavirus, UniProt K9N7C7); assay type: biochemical
[5] = target: human N7 MTase (hN7 or RNMT) (Homo sapiens, UniProt O43148); experiment: biochemical
hMPV MTase = target: T2, hMPV MTase (Human metapneumovirus, UniProt Q6WB93); experiment: biochemical; assay type: biochemical
T2 construct: hMPV MTase: 1 μM

Zika virus NS5 MTase = target: T3, Zika virus NS5 MTase (Zika virus, UniProt A0A024B7W1); experiment: biochemical
T3 construct: Zika virus NS5 MTase: 500 nM

Dengue virus NS5 MTase = target: T4, Dengue virus NS5 MTase (Dengue virus type 2, UniProt P29990); experiment: biochemical
T4 construct: Dengue virus NS5 MTase: 500 nM
T4 sequence (P29990 2493-2755 limits assumed): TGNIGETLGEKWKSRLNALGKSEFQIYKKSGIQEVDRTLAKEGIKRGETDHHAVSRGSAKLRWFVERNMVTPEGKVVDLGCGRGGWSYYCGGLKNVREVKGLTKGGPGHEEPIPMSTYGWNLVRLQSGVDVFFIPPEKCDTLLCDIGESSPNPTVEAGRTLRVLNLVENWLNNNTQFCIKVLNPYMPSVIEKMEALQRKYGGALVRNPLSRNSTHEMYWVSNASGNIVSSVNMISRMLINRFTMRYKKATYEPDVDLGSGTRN

in vitro = details: human
EBOV = details: cited from earlier work
MARV = details: cited from earlier work
[6] = read-out: SUDV EC50 (50% inhibition of virus-induced CPE)
[7] = Huh-7, read-out: EC50 against EBOV in Huh7 cells
[8] = read-out: MARV EC50 (50% inhibition of virus-induced CPE)
[9] = read-out: EBOV EC50 (50% inhibition of virus-induced CPE)

T2 sequence (Q6WB93 1599-2005 limits assumed): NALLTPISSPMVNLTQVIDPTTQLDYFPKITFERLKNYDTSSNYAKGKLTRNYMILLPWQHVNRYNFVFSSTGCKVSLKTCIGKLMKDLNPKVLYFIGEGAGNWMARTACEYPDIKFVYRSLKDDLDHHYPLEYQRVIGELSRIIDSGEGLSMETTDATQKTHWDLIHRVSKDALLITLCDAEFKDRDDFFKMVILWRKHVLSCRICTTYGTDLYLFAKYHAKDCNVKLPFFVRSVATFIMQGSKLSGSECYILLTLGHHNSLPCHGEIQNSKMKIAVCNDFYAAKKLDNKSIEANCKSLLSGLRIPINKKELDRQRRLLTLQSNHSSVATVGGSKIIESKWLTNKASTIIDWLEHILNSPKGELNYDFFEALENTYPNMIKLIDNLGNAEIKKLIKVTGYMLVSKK
T3 sequence (A0A024B7W1 2521-2785 limits assumed): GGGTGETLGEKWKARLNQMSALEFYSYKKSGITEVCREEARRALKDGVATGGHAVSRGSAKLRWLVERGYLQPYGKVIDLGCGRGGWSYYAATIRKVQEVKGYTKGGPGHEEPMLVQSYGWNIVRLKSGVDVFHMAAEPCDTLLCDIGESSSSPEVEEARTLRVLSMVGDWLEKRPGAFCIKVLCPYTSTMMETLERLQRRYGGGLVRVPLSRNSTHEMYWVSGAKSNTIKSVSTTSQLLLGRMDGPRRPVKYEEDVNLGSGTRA
Chain of human N7 MTase (hN7 or RNMT) (O43148 whole entry): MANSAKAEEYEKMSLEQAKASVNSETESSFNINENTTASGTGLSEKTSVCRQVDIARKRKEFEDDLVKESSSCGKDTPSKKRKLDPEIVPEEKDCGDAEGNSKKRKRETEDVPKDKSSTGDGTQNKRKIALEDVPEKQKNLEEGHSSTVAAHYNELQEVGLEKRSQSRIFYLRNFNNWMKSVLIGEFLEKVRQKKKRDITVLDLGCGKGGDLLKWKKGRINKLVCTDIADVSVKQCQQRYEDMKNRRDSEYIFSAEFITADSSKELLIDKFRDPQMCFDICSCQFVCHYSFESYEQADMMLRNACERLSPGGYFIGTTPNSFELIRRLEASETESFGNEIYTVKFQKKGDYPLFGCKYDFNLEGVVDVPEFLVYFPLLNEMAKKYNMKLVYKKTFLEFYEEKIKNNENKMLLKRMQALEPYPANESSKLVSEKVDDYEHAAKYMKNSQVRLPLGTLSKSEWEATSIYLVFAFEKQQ
Chain of MERS polymerase complex (12HC/7HC8) (K9N7C7 4378-5310 limits assumed): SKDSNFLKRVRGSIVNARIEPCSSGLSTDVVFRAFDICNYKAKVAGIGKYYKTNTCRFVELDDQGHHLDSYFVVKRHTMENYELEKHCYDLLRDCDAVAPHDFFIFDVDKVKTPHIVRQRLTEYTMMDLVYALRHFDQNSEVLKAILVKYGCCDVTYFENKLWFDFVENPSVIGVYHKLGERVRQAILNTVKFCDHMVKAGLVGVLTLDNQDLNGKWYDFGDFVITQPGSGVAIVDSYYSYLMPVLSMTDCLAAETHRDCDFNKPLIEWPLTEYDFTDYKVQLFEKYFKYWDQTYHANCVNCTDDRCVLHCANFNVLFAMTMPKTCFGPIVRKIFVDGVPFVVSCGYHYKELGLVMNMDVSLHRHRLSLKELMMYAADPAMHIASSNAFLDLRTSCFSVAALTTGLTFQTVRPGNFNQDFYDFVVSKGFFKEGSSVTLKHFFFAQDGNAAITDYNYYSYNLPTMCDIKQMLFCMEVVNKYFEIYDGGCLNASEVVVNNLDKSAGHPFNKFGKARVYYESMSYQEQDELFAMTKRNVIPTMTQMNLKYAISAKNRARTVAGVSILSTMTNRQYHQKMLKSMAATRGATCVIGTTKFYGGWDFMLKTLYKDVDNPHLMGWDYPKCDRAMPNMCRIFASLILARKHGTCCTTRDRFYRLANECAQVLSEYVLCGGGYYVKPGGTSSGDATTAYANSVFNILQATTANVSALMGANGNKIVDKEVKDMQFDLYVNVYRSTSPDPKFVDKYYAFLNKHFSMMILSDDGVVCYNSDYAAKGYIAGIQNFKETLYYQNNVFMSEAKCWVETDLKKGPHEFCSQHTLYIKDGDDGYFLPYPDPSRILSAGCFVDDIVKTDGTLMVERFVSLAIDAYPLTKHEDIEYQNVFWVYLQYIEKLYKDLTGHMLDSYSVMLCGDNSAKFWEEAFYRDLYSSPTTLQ
Chain of MERS polymerase complex (12HC/7HC8) (K9N7C7 3846-3928 partner limits assumed): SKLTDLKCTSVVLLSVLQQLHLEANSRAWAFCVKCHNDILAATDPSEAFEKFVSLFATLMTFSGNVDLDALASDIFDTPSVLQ
Chain of MERS polymerase complex (12HC/7HC8) (K9N7C7 3929-4127 partner limits assumed): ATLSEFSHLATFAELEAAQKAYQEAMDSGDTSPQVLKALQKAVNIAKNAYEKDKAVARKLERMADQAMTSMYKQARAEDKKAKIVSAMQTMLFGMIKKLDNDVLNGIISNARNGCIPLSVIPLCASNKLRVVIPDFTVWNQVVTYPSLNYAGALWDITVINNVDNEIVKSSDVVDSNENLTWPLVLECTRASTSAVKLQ
T1 sequence (P28887 1820-2008 limits assumed): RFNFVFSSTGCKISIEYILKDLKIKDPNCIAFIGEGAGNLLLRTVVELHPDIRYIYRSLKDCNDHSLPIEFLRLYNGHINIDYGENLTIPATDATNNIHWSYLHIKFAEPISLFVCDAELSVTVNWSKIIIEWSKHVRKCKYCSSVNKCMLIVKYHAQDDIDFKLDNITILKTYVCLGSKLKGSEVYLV

Structure (SMILES)	Antiviral activity against SUDV (SUDV (Gulu))	EC50 (SUDV (Gulu); [6]) [µM]	EC50 (Rift Valley Fever) [µM]	EC50 (Lassa Virus) [µM]	Antiviral activity against recombinant reporter EBOV [1]	EC50 ([1]; Huh-7, read-out: EBOV EC50) [µM]	EC50 [1, 7] [µM]	CC50 (Huh7 cells) [µM]	Antiviral activity against MARV (MARV (Ci67))	EC50 (MARV (Ci67); [8]) [µM]	CC50 (HeLa cells) [µM]	Antiviral activity against EBOV (EBOV (Makona))	EC50 (EBOV (Makona); [9]) [µM]	also measured
COc1nc(N)ncc1-c1cn(COCCO)cn1 [Compound 1]	no detectable activity	> 100	> 50	> 50	exhibited antiviral activity	2.2 ± 0.3	2.2 ± 0.3	> 50	no detectable activity	> 100	> 100	no detectable activity	> 100	
COc1nc(N)ncc1-c1cn(COCCOP(=O)(O)OP(=O)(O)OP(=O)(O)O)cn1 [Compound 2MR04]														IC50 (RSV MTase): ~18 µM; Inhibition of RSV MTase activity (RSV MTase): strongly inhibiting; Inhibition of SARS-nsp14 MTase activity [2]: inhibits; Reduction of product / oligonucleotide synthesis by SARS polymerase [3]: comparable to the other inhibitors; Reduction of product / oligonucleotide synthesis by MERS polymerase [4]: as effective as the 3′dGTP inhibitor; also recorded: as effective, not more effective, in reduction of oligonucleotide synthesis; IC50 [5]: ~49 µM; Inhibition of RNMT (RNA Guanine-7 Methyltransferase) [5]: not inhibited; IC50 (hMPV MTase): ~31 µM; Inhibition of hMPV MTase activity (hMPV MTase): strongly inhibiting; also recorded: inhibits; Inhibition of Zika virus MTase activity (Zika virus NS5 MTase): inhibits; IC50 (Zika virus NS5 MTase; IC50 Zika NS5-MTase): ~22 µM; IC50 (Zika virus NS5 MTase; IC50 in another testing (FIG. 15, effect on Zika Virus)): ~17 µM; IC50 (Dengue virus NS5 MTase): ~22 µM; Inhibition of Dengue virus NS5 MTase activity (Dengue virus NS5 MTase): inhibits
COc1nc(N)ncc1-c1cn(COCCOC(C)=O)cn1 [Compound 2]		20 ± 10								70 ± 27	> 100		44 ± 13	CC50 (in vitro): > 100 µM
CCC(CC)OC(=O)[C@@H](C)N[P@](=O)(OCCOCn1cnc(-c2cnc(N)nc2OC)c1)Oc1ccccc1 [Compound 3]	best activity against SUDV	7 ± 2	> 50	> 50	active against EBOV at a similar concentration; also recorded: exhibited antiviral activity	27.2 ± 2.2	27.2 ± 2.2	> 50	Activity against all three viruses was observed	62 ± 13	> 100	Activity against all three viruses was observed	29 ± 9	EC50 (SUDV (Gulu); read-out: EC50 SUDV in Hela cells (FIGS. 3-5)): 6.85 µM; EC50 (SUDV (Gulu); read-out: EC50 against SUDV in HeLa cells): 7 ± 2 µM; Potency of McGuigan prodrug relative to compound 1 [1]: ~10 fold; EC50 (MARV (Ci67); read-out: EC50 MARV in Hela cells (FIGS. 3-5)): 62.3 µM; EC50 (EBOV (Makona); read-out: EC50 EBOV in Hela cells (FIGS. 3-5)): 29.1 µM; EC50 (EBOV (Makona); read-out: EC50 against EBOV in HeLa cells): 29 ± 9 µM
CCC(CC)COC(=O)[C@H](C)N[P@](=O)(OC[C@H]1O[C@@](C#N)(c2ccc3c(N)ncnn23)[C@H](O)[C@@H]1O)Oc1ccccc1 [GS-5734]														Activity against EBOV (literature, words) (EBOV): very potent activity; Activity against MARV (literature, words) (MARV): very potent activity
